# Like-named read-outs stand apart in the source and are kept apart here.
# How the values were obtained:
# Pythium ultimum = assay: Threshold concentration test for use of the compounds against Pythium ultimum (infested soil, garden peas); type: in vivo; set-up: key to root evaluation (1-4): 4: white roots without fungous necrosis; 3: white roots, minor fungous necrosis; 2: brown roots, already more pronounced fungous necrosis; 1: heavy fungous necrosis, roots rotted; details: for root evaluation (1-4): 3 weeks; for number of sound peas: 20 grains per dish, 3 weeks at 20-24° C.
# How it was run: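 Pulverulent agents at 20% concentration mixed evenly into soil heavily infested with Pythium ultimum, then garden peas ('Wunder von Kelvedon', 20 per dish) sown at once. After three weeks at 20–24 °C in a hothouse, sound peas counted and roots scored on a 1–4 scale.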
# Helminthosporium gram = details: about 5 weeks
# Procedure: Treatment of barley seeds infested with Helminthosporium gram
# After emergence, the plants were subjected to illumination for 12 hours per day. After about 5 weeks the infested plants were counted and the total number of plants for each test were also counted. The active agents tested were used as pulverulent compositions.
# Tilletia caries [1] = assay: Seed treatment in open field tests regarding infestation by Tilletia caries (oats); type: in vivo; details: summer oats, about 4 months
# Fusarium nivale = assay: Treatment of rye seeds against Fusarium nivale; type: in vivo; details: 100 g/100 kg; about 4 weeks
# Procedure: Treatment of rye seeds against Fusarium nivale
# Rye seeds with a natural infestation by Fusarium nivale were seeded in earth filled pots and left for germination at about 6° C. Part of the seeds was treated before seeding with the active agents as appears from the subsequent table and part was untreated. After emergence of the seedlings the plants were illuminated with artificial light for 12 hours each day. After about 4 weeks the degree of infestation was determined in percentages. The fungicidal activity was calculated on the basis of the following formula: [formula]
# The active agents were used in the form of 20% concentration compositions.
# Tilletia caries [2] = assay: Treatment of oat seeds infested with Tilletia caries (spore germination); type: in vivo
# Fusarium avenaceum [3] = assay: Threshold concentration test in case of Fusarium avenaceum (infested soil, garden peas); type: in vivo; details: for number of sound peas: 20 grains per dish, 18 days at 20-24° C.; for root evaluation (1-4): 18 days
# How it was run: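 Soil heavily infested with Fusarium avenaceum was mixed uniformly with a 20% powder formulation of active agent, then sown immediately with 20 garden pea seeds ('Wunder von Kelvedon') per dish. After 18 days in a greenhouse at 20° to 24° C., sound plants were counted and roots scored on a 1–4 scale.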
# Fusarium avenaceum [4] = assay: Inhibition of fungus in a nutrient solution: Fusarium avenaceum; type: cell-based; details: 6 days at 21-23° C.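 Note: 0 means no fungus growth and higher grades mean more surface covered.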
# Procedure: Inhibition of fungus in a nutrient solution
# 20 ml of a nutrient solution of grape juice and water (1:1) were filled into a glass vial of a 100 ml capacity and were mixed with the pulverulent active agents which appear from the subsequent table. Thereafter, the solution was inoculated with conidia (spores) of the test fungi.
# After an incubation time of 6 days at 21° to 23° C. the fungus development on the surface of the nutrient solution was evaluated. The test fungi used were the following: Penicillium digitatum, Botrytis cinerea, Alternaria solani, Fusarium avenaceum.
# The evaluation was carried out at a scale from 0 to 5 as follows: […]
# Botrytis cinerea = assay: Inhibition of fungus in a nutrient solution: Botrytis cinerea; type: cell-based; details: 6 days at 21-23° C.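 Note: 0 means no fungus growth and higher grades mean more surface covered.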
# Alternaria solani = assay: Inhibition of fungus in a nutrient solution: Alternaria solani; type: cell-based; details: 6 days at 21-23° C.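 Note: 0 means no fungus growth and higher grades mean more surface covered.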
# Penicillium digitatum = assay: Inhibition of fungus in a nutrient solution: Penicillium digitatum; type: cell-based; details: 6 days at 21-23° C.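 Note: 0 means no fungus growth and higher grades mean more surface covered.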
# Septoria nodorum = assay: Treatment of oat seeds against Septoria nodorum; type: in vivo; details: 50 g active agent/100 kg seeds; 4 weeks
# Procedure: Effects of the treatment of oat seeds against Septoria nodorum
# They were then seeded on a moist substrate for germination. As a control untreated seeds were likewise seeded. At about 6° C. the seed was incubated in an air-conditioned chamber until after 4 weeks the proportion of diseased seeds could be determined and the activity of the fungicidal compounds was calculated on the basis of the following formula: [formula]
# The active agents were applied in the form of 20% concentration pulverulent compositions.
# Plasmopara viticola = assay: Prophylactic leaf treatment of grapevines in the hothouse against Plasmopara viticola; type: in vivo; details: concentration of active agent 0.025 (unit not given)
# How it was run: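 Grapevines (5–8 leaves) sprayed to runoff with compound as 20% spray powder, then after drying inoculated on leaf undersides with sporangial suspension (~20,000/ml). Incubated at 22–24 °C, saturated humidity, 3–4 days normal humidity (30–70%), then one day saturated; activity from mean % infested leaf area per treatment.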
# [5] = test system: Helminthosporium gramineum; assay: Seed treatment in open field tests for infestation by Helminthosporium gramineum (barley); type: in vivo; details: summer barley, about 3 months
# Procedure: Seed treatment in open field tests for infestation by Helminthosporium gramineum
# The active agents were used in the form of pulverulent compositions. After about 8 months in case of winter barley and after about 3 months in case of summer barley the infested plants were counted and the activity was calculated by the formula [formula]
# Piricularia oryzae = type: in vivo; details: concentration of active agent 0.1 (percentages); 5 days
Compound,root evaluation (1-4) (Pythium ultimum; 20 mg/l soil),number of sound peas (Pythium ultimum; 20 mg/l soil),root evaluation (1-4) (Pythium ultimum; 40 mg/l soil),number of sound peas (Pythium ultimum; 40 mg/l soil),root evaluation (1-4) (Pythium ultimum; 80 mg/l soil),number of sound peas (Pythium ultimum; 80 mg/l soil),% activity (Helminthosporium gram; 10 g active agent per 100 kg) [%],% activity (Helminthosporium gram; 20 g active agent per 100 kg) [%],% activity (Helminthosporium gram; 50 g active agent per 100 kg) [%],% activity (Fusarium nivale) [%],% activity (Tilletia caries [2]; 5 g active agent per 100 kg) [%],% activity (Tilletia caries [2]; 10 g active agent per 100 kg) [%],% activity (Tilletia caries [2]; 20 g active agent per 100 kg) [%],also measured
"CC[S+]([O-])c1nnc(C(N)=O)s1 (stereo not shown) [5-ethylsulfinyl-1,3,4-thiadiazole-2-carboxamide]",2,15,4,20,4,20,99,100,100,93,78,96,100,% activity (Tilletia caries [1]; 25 g active agent/100 kg): 100%; % activity (Tilletia caries [1]; 50 g active agent/100 kg): 100%
"CCS(=O)(=O)c1nnc(C#N)s1 [5-ethylsulfonyl-1,3,4-thiadiazole-2-carbonitrile]",2,19,4,20,4,20,–,–,–,92,–,–,–,number of sound peas (Fusarium avenaceum [3]; 25 mg/l soil): 18; root evaluation (1-4) (Fusarium avenaceum [3]; 25 mg/l soil): 4; number of sound peas (Fusarium avenaceum [3]; 50 mg/l soil): 20; root evaluation (1-4) (Fusarium avenaceum [3]; 50 mg/l soil): 4; number of sound peas (Fusarium avenaceum [3]; 100 mg/l soil): 20; root evaluation (1-4) (Fusarium avenaceum [3]; 100 mg/l soil): 4; fungus development on the surface of the nutrient solution (0-5) (Fusarium avenaceum [4]; 0.002%): 0; fungus development on the surface of the nutrient solution (0-5) (Fusarium avenaceum [4]; 0.004%): 0; fungus development on the surface of the nutrient solution (0-5) (Botrytis cinerea; 0.002%): 1; fungus development on the surface of the nutrient solution (0-5) (Botrytis cinerea; 0.004%): 0; fungus development on the surface of the nutrient solution (0-5) (Alternaria solani; 0.002%): 0; fungus development on the surface of the nutrient solution (0-5) (Alternaria solani; 0.004%): 0; fungus development on the surface of the nutrient solution (0-5) (Penicillium digitatum; 0.002%): 0; fungus development on the surface of the nutrient solution (0-5) (Penicillium digitatum; 0.004%): 0
"CCS(=O)(=O)c1nnc(C(N)=O)s1 [5-ethylsulfonyl-1,3,4-thiadiazole-2-carboxamide]",2,18,4,18,4,20,97,100,100,99.2,87,93,100,–
"CCS(=O)(=O)c1nnc(C(=O)NCCCOC)s1 [5-ethylsulfonyl-1,3,4-thiadiazole-2-carboxylic acid-(3-methoxypropyl)-amide]",1,11,4,18,4,17,99,99,100,–,–,100,100,% activity (Septoria nodorum): 86%; % activity (Plasmopara viticola): 90%; % activity ([5]; 25 g active agent/100 kg barley): 94%; % activity ([5]; 50 g active agent/100 kg barley): 96%; % activity ([5]; 100 g active agent/100 kg barley): 100%; % activity (Piricularia oryzae): 97%; % activity (Tilletia caries [2]; 50 g active agent per 100 kg): 100%
